Results published in PubChem BioAssay (NCI).
Values joined by “and” are separate entries in the source; they are usually repeats but may differ in a detail not shown here. Equal values may be shown once.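 48-hour exposure; five concentrations; linearly interpolated endpoints. The concentration for 50% growth inhibition is given as GI50. TGI: total growth inhibition.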

Experiments:
Assay in all cases: NCI anticancer screen, dose series, 48 h
KM12 colon = test system: KM12 colon
MDA-MB-435 = test system: MDA-MB-435
NCI-H460 lung = test system: NCI-H460 lung
OVCAR-4 ovarian = test system: OVCAR-4 ovarian
RPMI-8226 leukemia = test system: RPMI-8226 leukemia
SF-268 CNS = test system: SF-268 CNS
SK-MEL-2 melanoma = test system: SK-MEL-2 melanoma
SK-MEL-5 melanoma = test system: SK-MEL-5 melanoma
SW-620 colon = test system: SW-620 colon
UO-31 renal = test system: UO-31 renal

Structure (SMILES)	GI50 (KM12 colon) [µM]	TGI (KM12 colon) [µM]	GI50 (MDA-MB-435) [µM]	TGI (MDA-MB-435) [µM]	GI50 (NCI-H460 lung) [µM]	TGI (NCI-H460 lung) [µM]	GI50 (OVCAR-4 ovarian) [µM]	TGI (OVCAR-4 ovarian) [µM]	GI50 (RPMI-8226 leukemia) [µM]	TGI (RPMI-8226 leukemia) [µM]	GI50 (SF-268 CNS) [µM]	TGI (SF-268 CNS)	GI50 (SK-MEL-2 melanoma) [µM]	TGI (SK-MEL-2 melanoma) [µM]	GI50 (SK-MEL-5 melanoma) [µM]	TGI (SK-MEL-5 melanoma) [µM]	GI50 (SW-620 colon) [µM]	TGI (SW-620 colon) [µM]	GI50 (UO-31 renal) [µM]	TGI (UO-31 renal)
Cn1cnc2c(NCc3ccccc3)nc(NCCO)nc21	62.1	344	114	313	77.8	441	110	339	81.2	> 339	86.2	> 91.2 µM and 223 µM	44.4	178	96.4	220	158	> 426	93.6	> 96.2 µM and 420 µM
COC(=O)Nc1nc2ccc(Oc3ccc(NC(=O)Nc4cccc(Cl)c4)cc3)cc2[nH]1	0.147	3.8	0.0755	0.315	0.802	3.86	3.05	8.19	1.64	> 25	2.43	15.3 µM	1.07	8.06	0.492	3.66	0.975	9.85	6.93	> 21.4 µM
[N-]=[N+]=CC(=O)OCC(N)C(=O)O (stereo unspecified)	0.58	> 100	0.457	> 100	1.27	16.4	4.29	> 100	1.8	> 100	1.89	> 100 µM	15.9	> 100	0.563	14.5	0.649	> 100	4.92	> 100 µM
CC/C(=C(\CC)c1ccc(OCCN(CC)CC)cc1)c1ccc(OCCN(CC)CC)cc1	2.01	12.6	1.86	7.28	3.86	15.3	3.13	12.3	1.42	4.63	5.43	18.3 µM	1.9	7.58	1.48	2.86	2.33	7.79	0.996	11.3 µM
O=C(O)c1cccc(CC(Br)C(=O)O)c1 (stereo unspecified)		> 100		> 100		> 100		> 100		> 100		> 100 µM		> 100		> 100		> 100		> 100 µM
Nc1nccc(Nc2ccc(S(N)(=O)=O)cc2)n1		> 100		> 100		> 100		> 100		> 100		> 100 µM		> 100		> 100		> 100		> 100 µM
Cc1cccc(N=C2c3cc([N+](=O)[O-])ccc3-c3c2cc([N+](=O)[O-])cc3[N+](=O)[O-])c1	5.06	20	3.49	10.8	3.64	14.4	6.98	> 100	2.73	10.7	6.33	40.8 µM	7.39	32.1	5.44	17.9	2.01	3.76	10.9	29.9 µM
CN(CCC(=O)O)S(=O)(=O)c1ccccc1		> 100		> 100		> 100		> 100		> 100		> 100 µM		> 100		> 100		> 100		> 100 µM
Cc1ccc(NC(=O)c2ccnc(N3CCCC3)c2)cc1-c1ccc(C(=O)NCC2CC2)cc1	> 25	> 25	> 25	> 25	> 25	> 25	> 25	> 25	> 25	> 25	> 25	> 25 µM	> 25	> 25	> 25	> 25	> 25	> 25	> 25	> 25 µM
CC(=O)OCC1OC(S[As](C)C)C(OC(C)=O)C1OC(C)=O (stereo unspecified)	2	13.6	0.0672	0.301	2.36	14.4	1.15	8.09		0.126	1.31	7.53 µM	1.2	7.82	0.162	0.385	0.302	1.47	0.122	1.02 µM
CC(C)(O)[C@H]1[C@@H]2OC(=O)[C@H]1[C@]1(O)C[C@H]3OC34C(=O)O[C@H]2[C@@]41C (stereo partly specified) (tested in a mixture with another compound)		> 100		> 100		> 100		> 100		> 100		> 100 µM		> 100		> 100		> 100		> 100 µM
COc1cccc2c1c1nc3cc(C)c(C)cc3nc1n2CCN(C)C	1.83	9.43	1.83	4.14	1.09	10.9	2.06	8.6	1.16	4.29	2.13	7.45 µM	1.85	4.39	1.64	3.01	0.805	11.3	0.337	2.37 µM
O=C1/C(=C/C(Cl)=C/c2ccccc2)SC(=S)N1CCc1ccc(O)cc1	1.49	3.03	1.61	4.27	2.08	4.72	3.19	35.8	0.674	12.7	2.6	10.3 µM	2.56	7.42	1.77	3.31	1.43	3.9	1.29	2.69 µM
O=C(Cn1ccnc1[N+](=O)[O-])NCC(F)(F)C(F)(F)F	> 100	> 100	> 100	> 100	> 100	> 100	> 100	> 100	> 100	> 100	> 100	> 100 µM	> 100	> 100	> 100	> 100	> 100	> 100	> 100	> 100 µM
CCNc1nc(N2CC(=O)Nc3cc(OC)ccc32)c2ccccc2n1	0.000404	> 100	0.000193	0.000442	0.000365	> 100		> 100	0.000471	24.3	0.00139	> 100 µM		42.7	0.000456	0.00337	0.000378	> 100		> 100 µM
